Consider seven molecules from ChEMBL document CHEMBL5465560, “Selectivity Literature for EUbOPEN Chemogenomic Library” (2024).

Assay [1] concerns the target Serine/threonine-protein kinase 25 (Homo sapiens) (UniProt O00506). As to conditions: at 10 µM.
Assay [2] concerns the target Mitogen-activated protein kinase kinase kinase 14 (Homo sapiens) (UniProt Q99558). Description: Selectivity interaction (Ambit KINOMEscan and KiNATiv profiling in Jurkat cells) EUB0000090b MAP3K14. In kind it is cell-based. As to conditions: at 1 µM.
Assay [3] addresses Cyclin-dependent kinase 9 (Homo sapiens, UniProt P50750). As to conditions: at 10 µM.
The target in assay [4] is Receptor-type tyrosine-protein kinase FLT3 (Homo sapiens) (UniProt P36888). The assay is described as follows: Selectivity interaction (KinomeScan (DiscoverX)) EUB0001079a FLT3. As to conditions: at 1 µM.
Receptor-type tyrosine-protein kinase FLT3 (Homo sapiens), sequence (P36888 whole entry): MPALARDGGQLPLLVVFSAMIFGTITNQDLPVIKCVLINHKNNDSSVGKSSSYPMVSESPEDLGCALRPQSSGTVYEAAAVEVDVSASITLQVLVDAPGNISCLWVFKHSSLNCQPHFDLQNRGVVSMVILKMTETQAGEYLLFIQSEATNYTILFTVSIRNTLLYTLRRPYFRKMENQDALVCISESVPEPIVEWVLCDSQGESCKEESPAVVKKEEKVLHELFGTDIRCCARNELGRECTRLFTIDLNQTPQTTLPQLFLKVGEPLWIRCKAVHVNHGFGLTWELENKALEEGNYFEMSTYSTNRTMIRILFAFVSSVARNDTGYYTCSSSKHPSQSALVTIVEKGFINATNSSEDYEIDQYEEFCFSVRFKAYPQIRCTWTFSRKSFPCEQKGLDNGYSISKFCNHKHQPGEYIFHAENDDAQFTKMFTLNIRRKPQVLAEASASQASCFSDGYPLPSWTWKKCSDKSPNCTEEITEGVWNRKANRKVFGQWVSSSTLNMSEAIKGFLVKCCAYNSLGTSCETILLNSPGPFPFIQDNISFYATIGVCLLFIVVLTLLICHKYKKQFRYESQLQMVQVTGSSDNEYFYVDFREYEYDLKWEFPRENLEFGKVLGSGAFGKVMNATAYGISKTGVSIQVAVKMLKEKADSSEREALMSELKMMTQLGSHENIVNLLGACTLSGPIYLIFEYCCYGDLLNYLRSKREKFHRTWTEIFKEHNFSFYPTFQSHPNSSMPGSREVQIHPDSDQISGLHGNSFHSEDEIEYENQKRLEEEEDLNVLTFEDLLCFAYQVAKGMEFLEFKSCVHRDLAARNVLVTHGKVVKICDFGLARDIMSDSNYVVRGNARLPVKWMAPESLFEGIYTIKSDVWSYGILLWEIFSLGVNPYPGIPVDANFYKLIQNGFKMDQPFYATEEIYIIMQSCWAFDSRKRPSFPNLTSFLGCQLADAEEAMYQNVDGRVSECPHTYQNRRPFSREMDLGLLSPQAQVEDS
The next assay addresses SRSF protein kinase 1 (Homo sapiens, UniProt Q96SB4). The assay is described as follows: Selectivity interaction (KinomeScan (DiscoverX)) EUB0001079a SRPK1. The conditions noted are these: at 1 µM.
For assay [5], the target named is Calcium/calmodulin-dependent protein kinase type II subunit gamma (Homo sapiens) (UniProt Q13555). Description: Selectivity interaction (KinomeScan (DiscoverX)) EUB0000092b CAMK2G. The conditions noted are these: at 10 µM.
Calcium/calmodulin-dependent protein kinase type II subunit gamma (Homo sapiens), sequence (Q13555 whole entry): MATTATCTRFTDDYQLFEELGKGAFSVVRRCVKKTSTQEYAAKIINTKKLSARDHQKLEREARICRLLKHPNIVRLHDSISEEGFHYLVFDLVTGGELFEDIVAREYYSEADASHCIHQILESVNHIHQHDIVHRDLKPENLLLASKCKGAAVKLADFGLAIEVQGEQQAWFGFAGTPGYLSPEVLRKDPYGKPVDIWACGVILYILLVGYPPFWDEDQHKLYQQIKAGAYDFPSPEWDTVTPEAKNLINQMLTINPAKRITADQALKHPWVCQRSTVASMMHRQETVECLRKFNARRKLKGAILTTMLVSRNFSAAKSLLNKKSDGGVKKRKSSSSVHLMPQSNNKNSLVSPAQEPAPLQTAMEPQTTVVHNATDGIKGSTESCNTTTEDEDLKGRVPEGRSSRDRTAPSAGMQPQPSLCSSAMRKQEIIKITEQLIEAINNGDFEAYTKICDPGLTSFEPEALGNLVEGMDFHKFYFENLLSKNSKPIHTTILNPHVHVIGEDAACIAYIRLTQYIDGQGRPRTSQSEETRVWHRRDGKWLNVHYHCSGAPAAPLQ
Assay [6] addresses T1, Activin receptor type-1B (Homo sapiens) (UniProt P36896).
T1 sequence (whole entry): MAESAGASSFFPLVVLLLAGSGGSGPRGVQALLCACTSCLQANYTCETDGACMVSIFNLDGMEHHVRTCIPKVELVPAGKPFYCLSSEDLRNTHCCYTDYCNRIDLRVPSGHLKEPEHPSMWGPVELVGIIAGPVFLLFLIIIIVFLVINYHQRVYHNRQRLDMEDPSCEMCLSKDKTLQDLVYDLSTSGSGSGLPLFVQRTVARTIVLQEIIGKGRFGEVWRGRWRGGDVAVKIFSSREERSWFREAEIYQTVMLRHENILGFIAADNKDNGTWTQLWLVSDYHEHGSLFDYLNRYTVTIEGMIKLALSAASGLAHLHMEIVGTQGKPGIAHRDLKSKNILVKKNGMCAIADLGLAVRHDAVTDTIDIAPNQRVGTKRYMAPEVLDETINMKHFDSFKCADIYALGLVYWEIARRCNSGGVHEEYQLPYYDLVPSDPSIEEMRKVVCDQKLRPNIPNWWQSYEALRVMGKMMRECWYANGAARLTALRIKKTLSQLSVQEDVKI
Description: Selectivity interaction (KinomeScan (DiscoverX)) EUB0001049a ACVR1B. The conditions noted are these: at 1 µM.

For assay [7], the target named is T2, Histone-lysine N-methyltransferase NSD3 (Homo sapiens) (UniProt Q9BZ95).
T2 sequence (whole entry): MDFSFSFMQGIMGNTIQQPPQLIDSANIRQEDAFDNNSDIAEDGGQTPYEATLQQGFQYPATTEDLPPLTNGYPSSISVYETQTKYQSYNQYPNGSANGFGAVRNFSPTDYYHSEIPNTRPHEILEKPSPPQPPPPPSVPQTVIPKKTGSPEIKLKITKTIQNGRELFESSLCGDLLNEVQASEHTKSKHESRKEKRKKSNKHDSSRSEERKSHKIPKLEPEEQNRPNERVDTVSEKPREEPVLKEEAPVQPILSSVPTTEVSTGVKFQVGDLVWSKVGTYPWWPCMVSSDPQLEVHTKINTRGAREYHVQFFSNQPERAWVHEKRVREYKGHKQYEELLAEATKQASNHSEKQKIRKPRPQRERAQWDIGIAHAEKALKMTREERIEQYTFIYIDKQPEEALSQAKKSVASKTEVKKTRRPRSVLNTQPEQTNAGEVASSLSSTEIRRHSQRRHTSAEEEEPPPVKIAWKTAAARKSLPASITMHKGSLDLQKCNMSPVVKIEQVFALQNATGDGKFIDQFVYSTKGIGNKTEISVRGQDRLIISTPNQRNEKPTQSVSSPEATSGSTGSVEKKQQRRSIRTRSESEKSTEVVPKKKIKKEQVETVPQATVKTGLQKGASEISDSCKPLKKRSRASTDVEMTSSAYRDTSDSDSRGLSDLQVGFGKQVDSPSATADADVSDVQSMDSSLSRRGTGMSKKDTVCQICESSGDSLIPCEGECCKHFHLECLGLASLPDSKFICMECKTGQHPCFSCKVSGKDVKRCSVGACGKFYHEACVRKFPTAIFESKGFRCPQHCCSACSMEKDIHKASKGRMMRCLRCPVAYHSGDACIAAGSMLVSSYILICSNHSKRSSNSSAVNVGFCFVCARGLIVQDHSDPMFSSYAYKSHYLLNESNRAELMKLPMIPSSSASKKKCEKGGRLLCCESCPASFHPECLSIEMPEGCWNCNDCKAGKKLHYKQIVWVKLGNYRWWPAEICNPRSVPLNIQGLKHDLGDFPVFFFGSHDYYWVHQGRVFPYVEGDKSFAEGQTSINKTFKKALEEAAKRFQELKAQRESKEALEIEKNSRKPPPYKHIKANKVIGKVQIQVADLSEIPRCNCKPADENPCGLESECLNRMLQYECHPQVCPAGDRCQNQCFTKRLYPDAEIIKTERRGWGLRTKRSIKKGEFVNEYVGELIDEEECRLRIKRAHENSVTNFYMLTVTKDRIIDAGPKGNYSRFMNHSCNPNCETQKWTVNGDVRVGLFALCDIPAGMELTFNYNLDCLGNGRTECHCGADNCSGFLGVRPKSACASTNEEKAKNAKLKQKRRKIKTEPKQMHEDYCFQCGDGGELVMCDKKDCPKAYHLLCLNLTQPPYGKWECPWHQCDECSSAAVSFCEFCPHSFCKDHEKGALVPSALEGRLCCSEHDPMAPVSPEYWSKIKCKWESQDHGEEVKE
Description: Selectivity interaction (Methyltransferase screen (radiometric assays, panel of 8 PRMTs, 21 protein lysine methyltransferases, 3 DNA methyltransferases, and one RNA methyltransferase)) EUB0000272b NSD3.

SRSF protein kinase 1, sequence (Q96SB4 whole entry): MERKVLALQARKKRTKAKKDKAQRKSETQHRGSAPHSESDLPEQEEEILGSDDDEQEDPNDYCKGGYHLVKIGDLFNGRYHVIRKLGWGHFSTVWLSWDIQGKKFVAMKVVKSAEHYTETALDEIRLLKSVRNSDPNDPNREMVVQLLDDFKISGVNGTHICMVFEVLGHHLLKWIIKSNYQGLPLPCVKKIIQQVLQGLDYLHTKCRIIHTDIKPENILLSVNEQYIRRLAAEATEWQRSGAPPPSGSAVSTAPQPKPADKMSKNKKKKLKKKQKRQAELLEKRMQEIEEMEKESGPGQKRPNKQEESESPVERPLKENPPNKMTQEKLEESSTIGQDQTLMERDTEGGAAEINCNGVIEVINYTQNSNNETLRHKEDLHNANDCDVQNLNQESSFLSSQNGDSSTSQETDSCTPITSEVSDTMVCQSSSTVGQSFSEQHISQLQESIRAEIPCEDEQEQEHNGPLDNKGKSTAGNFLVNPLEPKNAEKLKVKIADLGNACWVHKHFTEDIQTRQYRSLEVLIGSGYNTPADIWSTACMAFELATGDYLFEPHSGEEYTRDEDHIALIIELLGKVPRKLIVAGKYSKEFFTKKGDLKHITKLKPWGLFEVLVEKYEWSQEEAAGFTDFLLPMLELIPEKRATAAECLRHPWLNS
Mitogen-activated protein kinase kinase kinase 14 (Homo sapiens), sequence (Q99558 whole entry, looked up): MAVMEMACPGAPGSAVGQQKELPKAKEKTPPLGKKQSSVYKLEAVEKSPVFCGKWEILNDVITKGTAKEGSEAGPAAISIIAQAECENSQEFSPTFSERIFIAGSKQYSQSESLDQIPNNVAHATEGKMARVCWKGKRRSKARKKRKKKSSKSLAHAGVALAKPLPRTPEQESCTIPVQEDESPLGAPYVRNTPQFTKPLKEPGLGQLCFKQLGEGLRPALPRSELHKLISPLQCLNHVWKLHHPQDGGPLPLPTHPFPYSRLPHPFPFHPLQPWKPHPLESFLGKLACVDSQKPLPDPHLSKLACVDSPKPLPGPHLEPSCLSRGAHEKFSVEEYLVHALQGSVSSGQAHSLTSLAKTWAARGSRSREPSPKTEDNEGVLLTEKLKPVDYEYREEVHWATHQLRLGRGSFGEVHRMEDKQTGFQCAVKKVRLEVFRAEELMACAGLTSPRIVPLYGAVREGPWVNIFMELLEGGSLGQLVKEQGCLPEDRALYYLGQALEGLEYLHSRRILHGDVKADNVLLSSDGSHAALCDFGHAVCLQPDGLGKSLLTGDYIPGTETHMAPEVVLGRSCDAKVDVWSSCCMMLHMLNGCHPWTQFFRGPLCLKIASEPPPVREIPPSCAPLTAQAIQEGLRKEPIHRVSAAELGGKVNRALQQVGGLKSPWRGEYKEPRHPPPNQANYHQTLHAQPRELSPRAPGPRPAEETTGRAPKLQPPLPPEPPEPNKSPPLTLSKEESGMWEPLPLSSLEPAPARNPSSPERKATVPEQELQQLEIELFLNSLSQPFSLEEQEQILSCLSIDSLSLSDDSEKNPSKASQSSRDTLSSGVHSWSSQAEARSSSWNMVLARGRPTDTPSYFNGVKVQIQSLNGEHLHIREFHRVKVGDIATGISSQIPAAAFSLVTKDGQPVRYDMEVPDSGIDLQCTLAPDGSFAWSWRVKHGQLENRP
Cyclin-dependent kinase 9, sequence (P50750 whole entry): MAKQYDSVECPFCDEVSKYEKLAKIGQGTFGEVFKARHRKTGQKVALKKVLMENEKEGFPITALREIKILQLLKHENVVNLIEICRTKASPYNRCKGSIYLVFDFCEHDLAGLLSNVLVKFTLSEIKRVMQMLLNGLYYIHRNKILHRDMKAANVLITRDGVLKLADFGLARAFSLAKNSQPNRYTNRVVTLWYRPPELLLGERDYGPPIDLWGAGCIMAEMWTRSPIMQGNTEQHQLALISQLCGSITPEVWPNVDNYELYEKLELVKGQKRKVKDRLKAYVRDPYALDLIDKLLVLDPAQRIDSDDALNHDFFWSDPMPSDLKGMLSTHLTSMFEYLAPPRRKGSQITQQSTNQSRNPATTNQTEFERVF
Serine/threonine-protein kinase 25 (Homo sapiens), sequence (O00506 whole entry, looked up): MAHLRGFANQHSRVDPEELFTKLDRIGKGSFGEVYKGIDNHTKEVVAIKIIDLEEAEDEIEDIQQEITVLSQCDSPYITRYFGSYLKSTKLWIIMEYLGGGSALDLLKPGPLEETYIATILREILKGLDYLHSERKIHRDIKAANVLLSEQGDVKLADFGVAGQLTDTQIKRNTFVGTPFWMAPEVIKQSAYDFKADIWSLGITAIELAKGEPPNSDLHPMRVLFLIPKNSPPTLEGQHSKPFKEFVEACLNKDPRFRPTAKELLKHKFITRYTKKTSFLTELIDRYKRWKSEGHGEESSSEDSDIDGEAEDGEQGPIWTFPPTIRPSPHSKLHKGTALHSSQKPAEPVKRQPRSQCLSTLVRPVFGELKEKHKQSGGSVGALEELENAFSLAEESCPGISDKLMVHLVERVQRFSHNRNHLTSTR

`Cc1cc([C@@H](C)Nc2ccccc2C(=O)O)c2nc(N3CCOCC3)cc(=O)n2c1` [AZD-6482] came in with a % of control in assay [1] of 76%. The molecule `CN(C)C/C=C/C(=O)Nc1ccc(C(=O)N2CCCC(Nc3ncc(Cl)c(-c4c[nH]c5ccccc45)n3)C2)cc1` (centres undefined) returned a % of control in assay [2] of 100%. In assay [3], `CCN(CC)CCCCNc1ncc2cc(-c3cc(OC)cc(OC)c3)c(NC(=O)NC(C)(C)C)nc2n1` registered a % of control of 100%. `Nc1cnc(N2CCc3cc(S(=O)(=O)Nc4c(F)cc(Cl)cc4F)cc(N4CCCC4=O)c32)nc1` [TP-020n]: the % of control in assay [4] was 91%; on SRSF protein kinase 1 it was 81%. `CCC(=O)N1CCN(c2ccc(-n3c(=O)ccc4cnc5ccc(-c6cnc7ccccc7c6)cc5c43)cc2C(F)(F)F)CC1`: in assay [5], the % of control came out at 79%.

In assay [6], `COc1cc(Nc2nc(C)cc(-c3cnn4nc(OC)ccc34)n2)cc(C(F)(F)F)c1` displayed a % of control of 100%.

As to `Cc1cc(C)cc([C@H]2c3cc(C)ccc3NC(=O)CN2C(=O)c2ccc(Br)s2)c1`, the % of activity in assay [7] (at 1 µM) stood at 104%; in assay [7] (at 10 µM), 99%.
